Data on four compounds can be found in US12410187B2, “Fused tricyclic compounds useful as anticancer agents” (ASTRAZENECA AB, priority 2019, dated 2025).

Data set [1] addresses T1, KRasG12C (Homo sapiens, UniProt P01116, G12C).
T1 construct: biotin (biotinylated); made in house
The data set is described as follows: KRasG12C functional assay (HTRF/FRET nucleotide exchange and Raf RBD binding). It counts as biochemical. The following applies: KRasG12C functional assay IC50, GDP loaded biotinylated KRasG12C, samples incubated for 4 hrs, FRET readout; single experiment or average of two or more. The method, boiled down:
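Assay buffer was 20 mM HEPES pH 7.5, 5 mM MgCl2, 150 mM NaCl, 0.01% Tween 20. A detection mix (20 nM GST-Raf RBD, 4 μg/ml anti-GST XL665, 50 mM KF, 4 h equilibration) received 0.6 μM GTPγS and 0.08 μM SOS (mix levels). SOS-driven GTPγS loading was read as HTRF from RBD binding, and IC50 was fitted from normalised FRET dose-response.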

Data set [2] concerns the target T1, KRasG12C. The data set is described as follows: KRasG12C mass spectrometry adducting assay. It counts as binding. The following applies: test compound final concentration 10 μM, 4 hours reaction with 4 μM GDP loaded biotinylated KRasG12C. Here is the method:
Enzyme solutions were prepared in assay buffer containing 20 mM HEPES (pH 7.5), 5 mM MgCl2, and 150 mM NaCl. […] The plate was sealed before reading on a Xevo G2 QTOF (Waters) and Acquity LC system (Waters). 10 μl of sample was injected onto a Xbridge BEH300; C4; 3.5 um; 2.1×50 mm column (Waters) running a 3 minute gradient. Blank samples were run in between each test sample.
Data was analysed in Mass Lynx software (Waters), the Total ion count (TIC) trace was used and the eluted protein peak data combined. Using the combined spectrum the data was deconvoluted using MaxEnt1 method. The peak area for apo-protein KRas^G12C (APO) and KRAS+relative cmpd mass (adduct) were measured, and a percentage adduct was calculated using the following calculation: Percent adduct=100*(area of adduct peak/(sum of APO+adduct peaks).
The data from this mass spectrometry adducing assay is presented in the column labelled KRasG12C M.S. Binding Mean adduct % in Table A below.

The subject of data set [3] is MDR1 (Pgp) and BCRP. The data set can be described thus: Blood brain barrier penetrant assessment: efflux ratio in MDCK_MDR1_BCRP cells. It is filed as in vitro ADME. The following applies: human, MDCK cells doubly transfected with MDR1 (Pgp) and BCRP, ratio of 2 or less = potential for good BBB penetration, read-out: Hu MDCK-MDR1-BCRP (0.1 uM) Mean Efflux Ratio. How it is done: In order to evaluate blood brain barrier (BBB) penetrant properties the efflux properties of compounds according to the specification was measured in cells transfected with the major efflux pumps expressed in the endothelial cells of the BBB. The assessment of efflux properties was performed using Madin-Darby Canine Kidney (MDCK) cells doubly transfected with MDR1 (Pgp) and BCRP. The transfected cell line, MDCK_MDR1_BCRP, thus expresses the two main efflux pumps that actively serve to exclude transit of compounds across the BBB and the efflux ration from these cell can be measured as described in the literature (Durant et al, Sci. Adv. 2018; eeat:1719). A compound that has an efflux ratio of 2 or less as measured by this technique is identified as having the potential for good BBB penetrant properties (Colclough et al, Drug Disc. Today 2019; 24(5), 1067-73).

T1 sequence (P01116 1-188 isoform P01116-2 G12C): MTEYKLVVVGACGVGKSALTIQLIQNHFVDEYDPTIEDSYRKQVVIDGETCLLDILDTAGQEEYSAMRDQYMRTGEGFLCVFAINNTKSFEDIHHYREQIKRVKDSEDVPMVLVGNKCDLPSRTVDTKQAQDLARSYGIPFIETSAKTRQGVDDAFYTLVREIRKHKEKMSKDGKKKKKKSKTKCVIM

Broadly, the IC50 is the midpoint of a concentration-inhibition curve. In the case of `C=CC(=O)N1CCN2Cc3ccc(-c4c(C)ccc5[nH]ncc45)c(Cl)c3OC[C@@H]2C1` (single isomer, unassigned) [Example 4], in data set [1], the IC50 was 74 µM. Besides, in data set [2], the “KRasG12C M.S. Binding Mean adduct %” value is recorded as 0%. Moreover, the efflux ratio at 0.1 uM in data set [3] is 0.9.
Regarding `C=CC(=O)N1CCN2Cc3cc(F)c(-c4c(O)cccc4Cl)c(F)c3OC[C@H]2C1` (single isomer, unassigned) [Example 42], in data set [1], the IC50 was 2.61 µM. For the same compound, the “KRasG12C M.S. Binding Mean adduct %” value in data set [2] was found to be 12%.
For the compound `C=CC(=O)N1CCN2Cc3cc(F)c(-c4c(O)cccc4Cl)c(F)c3OC[C@H]2C1` (single isomer, unassigned) [Example 43], the IC50 in data set [1] stood at 0.033 µM. Besides, the “KRasG12C M.S. Binding Mean adduct %” value in data set [2] is recorded as 95%. Further, in data set [3], the efflux ratio at 0.1 uM stood at 0.7.
On to `C=CC(=O)N1CCN2Cc3cc(F)c(-c4c(C)cccc4O)c(F)c3OC[C@H]2C1` (single isomer, unassigned) [Example 45], for which the IC50 in data set [1] is 0.066 µM. For the same compound, the “KRasG12C M.S. Binding Mean adduct %” value in data set [2] came to 97%. In addition, the efflux ratio at 0.1 uM in data set [3] amounted to 1.3.
